Converted amounts (≈) assume the structure as drawn.

What all share (assay type): functional
Assay [1] deals with Acinetobacter baumannii. In words: Antibacterial activity against Acinetobacter baumannii ATCC 17978 harboring plasmid directed expression of beta-lactamase OXA-58 under an ISAba3 promoter.
The test system of assay [2] is Acinetobacter baumannii. In words: Antibacterial activity against Acinetobacter baumannii ATCC 17978 harboring plasmid directed expression of beta-lactamase OXA-58 under an ISAba825-ISAba3 hybrid and ISAba3-derived promoter sequence.
For assay [3], the system named is Acinetobacter baumannii. In words: Antibacterial activity against Acinetobacter baumannii Ab880 overexpressing beta-lactamase OXA-58 under the control of ISAba825 insertion sequence.
Assay [4] concerns Acinetobacter baumannii. Put plainly: Antibacterial activity against Acinetobacter baumannii ATCC 17978 harboring pAB880.
Assay [5] relates to Acinetobacter baumannii. Put plainly: Antibacterial activity against Acinetobacter baumannii ATCC 17978 harboring plasmid 1266.
Assay [6] concerns Acinetobacter baumannii. Put plainly: Antibacterial activity against Acinetobacter baumannii ATCC 17978.
Assay [7] concerns Acinetobacter baumannii. In words: Ratio of MIC for Acinetobacter baumannii ATCC 17978 harboring plasmid pWHP825 to MIC for Acinetobacter baumannii ATCC 17978 harboring plasmid 1266.

For orientation: MIC means the lowest concentration found to suppress growth. A higher MIC goes with weaker potency. For `C[C@@H](O)[C@H]1C(=O)N2C(C(=O)O)=C(S[C@@H]3CN[C@H](C(=O)N(C)C)C3)[C@H](C)[C@H]12` [MEROPENEM], the minimal inhibitory concentration (MIC) in assay [1] was found to be 0.5 µg/mL (≈ 1.3 µM); in assay [2] it was 16 µg/mL (≈ 41.7 µM); in assay [3], 16 µg/mL (≈ 41.7 µM); in assay [4], 8 µg/mL (≈ 20.9 µM); in assay [5] it was 0.25 µg/mL (≈ 0.652 µM); in assay [6] it was 0.25 µg/mL (≈ 0.652 µM). The Ratio in assay [7] worked out at 64.
Regarding `C[C@@H](O)[C@H]1C(=O)N2C(C(=O)O)=C(SCCNC=N)C[C@H]12` [IMIPENEM ANHYDROUS], the MIC in assay [1] stood at 0.5 µg/mL (≈ 1.67 µM); in assay [2] it was 32 µg/mL (≈ 107 µM); in assay [3], 16 µg/mL (≈ 53.4 µM); in assay [4], 16 µg/mL (≈ 53.4 µM); in assay [5], 0.25 µg/mL (≈ 0.835 µM); in assay [6], 0.25 µg/mL (≈ 0.835 µM). Moreover, the Ratio in assay [7] was 128.

Values taken from ChEMBL document CHEMBL1687839, “ISAba825, a functional insertion sequence modulating genomic plasticity and bla(OXA-58) expression in Acinetobacter baumannii” (2011).
